Assay results as given in patent US20240043420A1, “7-AZAINDOLE COMPOUNDS FOR INHIBITION OF BCR-ABL TYROSINE KINASES” (EnLiven Therapeutics, Inc., priority 2020, published 2024).

How the values were obtained:
[1] = target: ABL1 (T315I) (Homo sapiens, UniProt P00519, T315I); experiment: Luminescence-based ABL kinase assay (ADP-Glo, 300 μM ATP), T315I mutant; type: biochemical
Method: (§1) Kinase activity of ABL1 was measured using the ADP-Glo system (Promega), which measures formation of ADP using a luminescence-based method. Compounds were serially diluted in DMSO. 20 nL of compound or DMSO only (high control, HC) were added to a 384-well plate (OptiPlate-384, PerkinElmer) using an Echo550 liquid handler (Labcyte). 15 μL of kinase solution (10 mM MgCl2, 0.01% Brij-35, 2 mM DTT, 0.05% BSA, 1 mM EGTA, 50 mM HEPES pH 7.5, and 3.325 nM ABL1 [Carna Biosciences]) were added to each well of the 384-well plate containing the compounds. No enzyme control wells were included (low control, LC). The plate was incubated at room temperature for 30 minutes. 5 μL of a second solution containing 10 mM MgCl2, 0.01% Brij-35, 2 mM DTT, 0.05% BSA, 1 mM EGTA, 50 mM HEPES pH 7.5, 6 μM Peptide 2 (Perkin Elmer, Cat No 760346), and 1.2 mM ATP were added to each well to start the kinase reaction. The plate was incubated for 90 minutes at room temperature. 20 μL of ADP-Glo reagent (Promega) were then added to each well and the plate was incubated for 40 minutes at room temperature. 40 μL of kinase detection reagent (Promega) was added to each well and the plate was incubated for an additional 45 minutes at room temperature. During this step, ADP was converted to ATP, a substrate for luciferase, to produce luminescence signal. Luminescence was measured on an Envision plate reader (Perkin Elmer). Luminescence signal positively correlates with kinase activity. The percent kinase activity was calculated as follows: percent kinase activity=100×(Lumsample−LumLC)/(LumHC−LumLC). As noted above, DMSO only and no enzyme wells were used as high and low controls, respectively. IC50 values were calculated using the XLFit software.

[2] = target: T1, ABL1 (Homo sapiens, UniProt P00519); experiment: Luminescence-based ABL kinase assay (ADP-Glo, 300 μM ATP); type: biochemical
T1 construct: purchased Carna Biosciences
Method: as §1

Row | IC50 [1] | IC50 [2] | Structure (SMILES)
1 | 19.5 nM | 151 nM | COc1ccccc1-c1c[nH]c2nc(NC(=O)[C@H]3C[C@@H]3CC#N)ccc12 (relative stereo) [Compound 107, trans-2-(cyanomethyl)-N-(3-(2-methoxyphenyl)-1H-pyrrolo[2,3-b]pyridin-6-yl)cyclopropane-1-carboxamide]
2 | 1810 nM | 408 nM | O=C(Nc1ccc2c(-c3cccnc3OCC3CC3)c[nH]c2n1)C1CC1F (single isomer, unassigned) [Example S148, Enantiomer 1, N-(3-(2-(cyclopropylmethoxy)pyridin-3-yl)-1H-pyrrolo[2,3-b]pyridin-6-yl)-2-fluorocyclopropane-1-carboxamide Enantiomer 1]
3 | 27.2 nM | 30 nM | COc1cccc(OC)c1-c1c[nH]c2nc(NC(=O)C3CC3CN3CCNCC3)ccc12 (single isomer, unassigned) [Example S150, Enantiomer 2, N-[3-(2,6-dimethoxyphenyl)-1H-pyrrolo[2,3-b]pyridin-6-yl]-2-(piperazin-1-ylmethyl)cyclopropane-1-carboxamide]
4 | > 10000 nM | > 10000 nM | COc1c(-c2c[nH]c3nc(NC(=O)C4CC4)ccc23)ccc2[nH]ncc12 [Compound 16, N-[3-(4-methoxy-1H-indazol-5-yl)-1H-pyrrolo[2,3-b]pyridin-6-yl]cyclopropanecarboxamide]
5 | 14.5 nM | 33 nM | O=C(Nc1ccc2c(-c3ccc4[nH]ccc4c3)c[nH]c2n1)C1CC1 [Compound 18, N-[3-(1H-indol-5-yl)-1H-pyrrolo[2,3-b]pyridin-6-yl]cyclopropanecarboxamide]
6 | 27.7 nM | 110 nM | O=C(Nc1ccc2c(-c3ccc4cc[nH]c4c3)c[nH]c2n1)C1CC1 [Compound 20, N-(3-(1H-indol-6-yl)-1H-pyrrolo[2,3-b]pyridin-6-yl)cyclopropanecarboxamide]
7 | 74.3 nM | 776 nM | O=C(Nc1ccc2c(-c3ccc4c(c3)NCC4)c[nH]c2n1)C1CC1 [Compound 25, N-[3-(2,3-dihydro-1H-indol-6-yl)-1H-pyrrolo[2,3-b]pyridin-6-yl]cyclopropanecarboxamide]
8 | 90.2 nM | 148 nM | CNc1ccc(-c2c[nH]c3nc(NC(=O)C4CC4)ccc23)c(OC)n1 [Compound 30, N-[3-[2-methoxy-6-(methylamino)pyridin-3-yl]-1H-pyrrolo[2,3-b]pyridin-6-yl]cyclopropanecarboxamide]
9 | 731 nM | 159 nM | Cc1cc(N)ncc1-c1c[nH]c2nc(NC(=O)C3CC3)ccc12 [Compound 34, N-[3-(6-amino-4-methylpyridin-3-yl)-1H-pyrrolo[2,3-b]pyridin-6-yl]cyclopropanecarboxamide]
10 | 774 nM | 599 nM | CNc1cc(C)c(-c2c[nH]c3nc(NC(=O)C4CC4)ccc23)cn1 [Compound 35, N-[3-[4-methyl-6-(methylamino)pyridin-3-yl]-1H-pyrrolo[2,3-b]pyridin-6-yl]cyclopropanecarboxamide]
11 | 690 nM | 202 nM | Nc1ncccc1-c1c[nH]c2nc(NC(=O)C3CC3)ccc12 [Compound 36, N-[3-(2-aminopyridin-3-yl)-1H-pyrrolo[2,3-b]pyridin-6-yl]cyclopropanecarboxamide]
12 | 332 nM | 689 nM | Nc1cccc(-c2c[nH]c3nc(NC(=O)C4CC4)ccc23)n1 [Compound 38, N-(3-(6-aminopyridin-2-yl)-1H-pyrrolo[2,3-b]pyridin-6-yl)cyclopropanecarboxamide]
13 | 245 nM | 195 nM | CNc1cccc(-c2c[nH]c3nc(NC(=O)C4CC4)ccc23)n1 [Compound 39, N-(3-(6-(methylamino)pyridin-2-yl)-1H-pyrrolo[2,3-b]pyridin-6-yl)cyclopropanecarboxamide]
14 | 170 nM | 121 nM | Nc1ccc(-c2c[nH]c3nc(NC(=O)C4CC4)ccc23)cn1 [Compound 40, N-[3-(6-aminopyridin-3-yl)-1H-pyrrolo[2,3-b]pyridin-6-yl]cyclopropanecarboxamide]
15 | 20.6 nM | 86.4 nM | O=C(Nc1ccc2c(-c3c(F)cccc3F)c[nH]c2n1)C1CC1 [Compound 46, N-(3-(2,6-difluorophenyl)-1H-pyrrolo[2,3-b]pyridin-6-yl)cyclopropanecarboxamide]
16 | 1030 nM | 114 nM | O=C(Nc1ccc2c(-c3ccn4ccnc4c3)c[nH]c2n1)C1CC1 [Compound 55, N-(3-[imidazo[1,2-a]pyridin-7-yl]-1H-pyrrolo[2,3-b]pyridin-6-yl)cyclopropanecarboxamide]
17 | 3870 nM | 1090 nM | Cn1cc(-c2c[nH]c3nc(NC(=O)C4CC4)ccc23)ccc1=O [Compound 57, N-[3-(1-methyl-6-oxopyridin-3-yl)-1H-pyrrolo[2,3-b]pyridin-6-yl]cyclopropanecarboxamide]
18 | 11 nM | 8.62 nM | COc1cc2cn[nH]c2cc1-c1c[nH]c2nc(NC(=O)[C@H]3C[C@H]3F)ccc12 [Compound 59, (1R,2R)-2-fluoro-N-[3-(5-methoxy-1H-indazol-6-yl)-1H-pyrrolo[2,3-b]pyridin-6-yl]cyclopropane-1-carboxamide]
19 | 8700 nM | 158 nM | CN(C)c1ncccc1-c1c[nH]c2nc(NC(=O)C3CC3)ccc12 [Compound 65, N-(3-(2-(dimethylamino)pyridin-3-yl)-1H-pyrrolo[2,3-b]pyridin-6-yl)cyclopropanecarboxamide]
20 | > 10000 nM | 2460 nM | COc1c(-c2c[nH]c3nc(NC(=O)[C@@H]4C[C@@H]4F)ccc23)ccc2nccn12 [Compound 73, (1S,2S)-2-fluoro-N-(3-(5-methoxyimidazo[1,2-a]pyridin-6-yl)-1H-pyrrolo[2,3-b]pyridin-6-yl)cyclopropane-1-carboxamide]
21 | 659 nM | 1050 nM | COc1ncc(F)cc1-c1c[nH]c2nc(NC(=O)NCCN(C)C)ccc12 [Compound 80, 3-[2-(dimethylamino)ethyl]-1-[3-(5-fluoro-2-methoxypyridin-3-yl)-1H-pyrrolo[2,3-b]pyridin-6-yl]urea]
22 | 219 nM | 337 nM | COc1ncccc1-c1c(C)[nH]c2nc(NC(=O)[C@@H]3C[C@@H]3F)ccc12 [Compound 89, (1S,2S)-2-fluoro-N-(3-(2-methoxypyridin-3-yl)-2-methyl-1H-pyrrolo[2,3-b]pyridin-6-yl)cyclopropane-1-carboxamide]
23 | 2.94 nM | 5.3 nM | COc1nc2[nH]ccc2cc1-c1c[nH]c2nc(NC(=O)[C@@H]3C[C@@H]3F)ccc12 [Compound 93, (1S,2S)-2-fluoro-N-(6′-methoxy-1H,1′H-[3,5′-bipyrrolo[2,3-b]pyridin]-6-yl)cyclopropane-1-carboxamide]
24 | 61.6 nM | 199 nM | COc1ccccc1-c1c[nH]c2nc(NC(=O)NCCN(C)C)ccc12 [Compound 97, 3-[2-(dimethylamino)ethyl]-1-[3-(2-methoxyphenyl)-1H-pyrrolo[2,3-b]pyridin-6-yl]urea]
25 | 105 nM | 98.2 nM | COc1c(F)cccc1-c1n[nH]c2nc(NC(=O)[C@@H]3C[C@@H]3F)ccc12 [Compound 100, (1S,2S)-2-fluoro-N-(3-(3-fluoro-2-methoxyphenyl)-1H-pyrazolo[3,4-b]pyridin-6-yl)cyclopropane-1-carboxamide]
26 | 29.1 nM | 102 nM | COc1ccccc1-c1c[nH]c2nc(NC(=O)NCCC#N)ccc12 [Compound 104, 3-(2-cyanoethyl)-1-[3-(2-methoxyphenyl)-1H-pyrrolo[2,3-b]pyridin-6-yl]urea]
27 | 150 nM | 51.4 nM | COc1c(-c2c[nH]c3nc(NC(=O)[C@@H]4C[C@@H]4F)ccc23)ccn2ccnc12 [Compound 114, (1S,2S)-2-fluoro-N-(3-[8-methoxyimidazo[1,2-a]pyridin-7-yl]-1H-pyrrolo[2,3-b]pyridin-6-yl)cyclopropane-1-carboxamide]
28 | 60.8 nM | 65.5 nM | COc1c(F)cc(F)c(OC)c1-c1c[nH]c2nc(NC(=O)[C@@H]3C[C@@H]3F)ccc12 [Compound 120, (1S,2S)—N-[3-(3,5-difluoro-2,6-dimethoxyphenyl)-1H-pyrrolo[2,3-b]pyridin-6-yl]-2-fluorocyclopropane-1-carboxamide]
29 | 19.9 nM | 73.4 nM | COc1ccccc1-c1c[nH]c2nc(NC(=O)NCC3CC3)ccc12 [Compound 122, 3-(cyclopropylmethyl)-1-[3-(2-methoxyphenyl)-1H-pyrrolo[2,3-b]pyridin-6-yl]urea]
30 | 17.6 nM | 56.5 nM | COc1ccccc1-c1c[nH]c2nc(NC(=O)NC3CC3)ccc12 [Compound 123, 3-cyclopropyl-1-[3-(2-methoxyphenyl)-1H-pyrrolo[2,3-b]pyridin-6-yl]urea]
